Reference: patent US20090047310A1, “Use of a griffonia extract, in particular griffonia simplicifolia, in a cosmetic or dermatological composition for mitigating pigmentation of skin and skin appendages” (priority 2005, published 2009)

System: Normal human melanocytes
Test: Melanogenesis: quantity of melaninic pigments in cultured normal human melanocytes
Type: cell-based
Conditions: ten days culture
Method: Normal human melanocytes are cultured for ten days in the absence and in the presence of non-cytotoxic quantities of the dry extract. The quantity of melaninic pigments is evaluated by extraction using 0.5 N soda and optical density measurement.
The procedure is as before for the dry extract.
The procedure is as before for the dry extract using 5-HTP extracted from the seeds of Griffonia simplicifolia.

## N[C@@H](Cc1c[nH]c2ccc(O)cc12)C(=O)O [5-HTP, 5-hydroxytryptophan]
0.0016 mg/ml, p less than 0.05
  quantity of melanin produced by the melanocytes, % of the control: 93%
0.008 mg/ml, p less than 0.01
  quantity of melanin produced by the melanocytes, % of the control: 89%
0.04 mg/ml, p less than 0.01
  quantity of melanin produced by the melanocytes, % of the control: 80%
